As a reminder, the half-life is the time needed for the level to fall by half in the phase considered. Usually IC50 stands for the concentration at which inhibition is half-maximal.

Each structure is given as a SMILES string.

For data set [1], the system named is LoVo. Kind of data set: Induction of apoptosis in human LoVo cells assessed as early apoptotic cells at 1 uM incubated for 24 hrs by Annexin-V-FITC-PI staining based flow cytometric analysis (reference value: 13.7 %). The data set is classed as functional. Background: A flow cytometer gives signals particle by particle.
Data set [2] concerns LoVo. Description: Induction of apoptosis in human LoVo cells assessed as late apoptotic cells at 1 uM incubated for 24 hrs by Annexin-V-FITC-PI staining based flow cytometric analysis (reference value: 13.2 %). It is filed as functional.
A short description of data set [3]: Permeability across apical to basolateral side in human Caco-2 cells at 0.1 to 10 uM incubated for 120 mins by LC-MS/MS analysis. It is filed as ADME, cell-based. Conditions: caco-2, 2 h, dose 0.1-10 µM.
Data set [4] can be described thus: Plasma protein binding in human at 1 uM incubated for 5 hrs in HTD dialysis in the presence of verapamil by LC-MS/MS analysis relative to control. Conditions: read-out: PPB (converted). It is filed as ADME, cell-free.
Data set [5] in a line: Drug metabolism in Sprague-Dawley rat plasma by LC-MS/MS analysis. The data set is classed as ADME, cell-free. Conditions: 5 h, 1 µM.
A short description of data set [6]: Drug metabolism in Beagle dog plasma by LC-MS/MS analysis. It is filed as ADME, cell-free, Canis lupus familiaris. The following applies: 5 h, 1 µM.
Data set [7] in a line: Stability in CD-1 mouse plasma assessed as half life by LC-MS/MS analysis. It is filed as ADME, cell-free.
Data set [8] in a line: Stability in Beagle dog plasma assessed as half life by LC-MS/MS analysis. It is filed as ADME, cell-free, Canis lupus familiaris.
For data set [9], the target named is Cytochrome P450 1A2 (Homo sapiens, UniProt P05177). Kind of data set: Inhibition of CYP1A2 in human liver microsomes in the presence of NADPH incubated for 60 mins by LC-MS/MS analysis. It is filed as ADME, Microsome.
Sequence of Cytochrome P450 1A2 (P05177 whole entry): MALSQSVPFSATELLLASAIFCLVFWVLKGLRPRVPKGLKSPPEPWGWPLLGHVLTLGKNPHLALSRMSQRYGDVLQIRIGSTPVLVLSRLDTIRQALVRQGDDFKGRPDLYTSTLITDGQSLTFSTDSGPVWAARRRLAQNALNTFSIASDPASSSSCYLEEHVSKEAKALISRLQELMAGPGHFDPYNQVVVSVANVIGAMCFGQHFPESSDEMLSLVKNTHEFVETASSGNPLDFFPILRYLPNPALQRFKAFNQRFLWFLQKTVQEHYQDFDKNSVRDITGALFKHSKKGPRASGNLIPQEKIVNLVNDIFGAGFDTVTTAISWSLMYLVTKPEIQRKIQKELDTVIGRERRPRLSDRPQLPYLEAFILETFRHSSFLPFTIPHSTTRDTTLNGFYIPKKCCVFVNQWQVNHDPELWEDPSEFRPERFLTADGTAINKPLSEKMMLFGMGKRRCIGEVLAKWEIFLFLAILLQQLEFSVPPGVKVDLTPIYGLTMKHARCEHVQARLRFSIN
For data set [10], the target named is Cytochrome P450 2C8 (Homo sapiens, UniProt P10632). Kind of data set: Inhibition of CYP2C8 in human liver microsomes in the presence of NADPH incubated for 60 mins by LC-MS/MS analysis. The data set is classed as ADME, Microsome. On the technique in general: Liver microsomes are vesicles of endoplasmic reticulum, rich in cytochrome P450 enzymes.
Sequence of Cytochrome P450 2C8 (P10632 whole entry): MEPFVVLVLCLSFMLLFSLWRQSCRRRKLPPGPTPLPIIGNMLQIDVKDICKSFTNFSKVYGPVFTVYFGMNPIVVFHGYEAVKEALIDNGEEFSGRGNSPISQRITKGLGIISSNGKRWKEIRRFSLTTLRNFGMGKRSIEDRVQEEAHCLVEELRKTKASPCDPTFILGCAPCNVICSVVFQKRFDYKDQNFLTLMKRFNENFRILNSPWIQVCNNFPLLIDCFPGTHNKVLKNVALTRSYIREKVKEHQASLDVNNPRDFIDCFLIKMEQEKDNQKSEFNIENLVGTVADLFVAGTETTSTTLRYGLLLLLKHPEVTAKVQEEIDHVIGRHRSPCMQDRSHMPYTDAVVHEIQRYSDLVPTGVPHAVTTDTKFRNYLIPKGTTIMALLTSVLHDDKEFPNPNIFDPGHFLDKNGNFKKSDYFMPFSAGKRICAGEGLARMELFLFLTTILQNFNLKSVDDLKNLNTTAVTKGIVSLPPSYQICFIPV
A short description of data set [11]: Induction of CYP2B6 mRNA expression in human primary hepatocyte isolated from YND donor at 0.1 to 10 uM incubated for 72 hrs by real-time PCR analysis. The data set is classed as ADME, cell-based. The following applies: hepatocytes, dose 0.1-10 µM. On the technique in general: Quantitative PCR measures a nucleic acid by following its amplification.
Data set [12] is described as follows: Induction of CYP2B6 mRNA expression in human primary hepatocyte isolated from RAS donor at 0.1 to 10 uM incubated for 72 hrs by real-time PCR analysis. The data set is classed as ADME, cell-based. The following applies: hepatocytes, dose 0.1-10 µM.
Data set [13] is described as follows: Toxicity in Beagle dogs assessed as effect on respiratory system at 5 to 20 mg/kg, po administrated as single dose upto 24 hrs. The data set is classed as organism-based, Canis lupus familiaris. The following applies: dog, in vivo, dose 5-20 mg/kg.
The nature of data set [14]: Drug excretion in Sprague-Dawley rat feces at 5 mg/kg, IG administrated for 48 hrs by LC-MS/MS analysis. Conditions: in vivo, po. The data set is classed as ADME, organism-based.
Data set [15] can be described thus: Toxicity in male Balb/c nude mouse xenografted with human 22Rv1 cells assessed as body weight at 40 mg/kg QD, po measured every 3 days for 25 days at 10 to 60 mg/kg QD, po measured every 3 days for 18 days. The data set is classed as organism-based. Conditions: in vivo, 432 h, time 18 day.
The test system of data set [16] is NCI-H1703. Kind of data set: Antitumor activity against human NCI-H1703 cells xenografted in female Balb/c nude mouse assessed as tumor growth inhibition at 40 mg/kg QD, po administered as 3 days on and 4 days off schedule for 4 weeks relative to control. The following applies: NCI-H1703, 672 h, time 28 day, read-out: TGI. It is filed as functional.

On to `Cc1nn(-c2cccnc2)c(C)c1-c1cc(N2CC3CCC(C2)O3)nc2c(-c3ccn[nH]3)cnn12.O=C(O)/C=C/C(=O)O`, for which the Activity was 18.2% in [1]; 10% in [2]; “Not_active” in [11]; “Active” in data set [12]; “Non-toxic” in [13]; “Non-toxic” in [15]. Moreover, in [3], the permeability result is reported as “Permeable”. In addition, the fraction unbound at 5 h, 1 µM in data set [4] was 0.075. In addition, the Drug metabolism entry in data set [5] and in data set [6] was “metabolite_notdetected” each time. The half-life in data set [7] and in data set [8] was greater than 2 h in each case. The IC50 in [9] was greater than 100 µM; in data set [10], 37.1 µM. In addition, in [14], the Drug excretion result was “Active”. In addition, the inhibition in vivo at 40 mg/kg in [16] came to 36.2%.

The values above are taken from ChEMBL document CHEMBL6103629 (J Med Chem, 2025).
